The record followed here is patent US9902728B2, “Pyrrolo and pyrazolopyrimidines as ubiquitin-specific protease 7 inhibitors” (Forma Therapeutics, Inc., priority 2014, dated 2018).

The target in the first test is T1, USP7 (Homo sapiens, UniProt Q93009).
T1 construct: USP7, construct USP7 (208-1102) 6*His, Viva Biotech; 6xHis (C); purchased Viva Biotech
T1 sequence (Q93009 208-1102): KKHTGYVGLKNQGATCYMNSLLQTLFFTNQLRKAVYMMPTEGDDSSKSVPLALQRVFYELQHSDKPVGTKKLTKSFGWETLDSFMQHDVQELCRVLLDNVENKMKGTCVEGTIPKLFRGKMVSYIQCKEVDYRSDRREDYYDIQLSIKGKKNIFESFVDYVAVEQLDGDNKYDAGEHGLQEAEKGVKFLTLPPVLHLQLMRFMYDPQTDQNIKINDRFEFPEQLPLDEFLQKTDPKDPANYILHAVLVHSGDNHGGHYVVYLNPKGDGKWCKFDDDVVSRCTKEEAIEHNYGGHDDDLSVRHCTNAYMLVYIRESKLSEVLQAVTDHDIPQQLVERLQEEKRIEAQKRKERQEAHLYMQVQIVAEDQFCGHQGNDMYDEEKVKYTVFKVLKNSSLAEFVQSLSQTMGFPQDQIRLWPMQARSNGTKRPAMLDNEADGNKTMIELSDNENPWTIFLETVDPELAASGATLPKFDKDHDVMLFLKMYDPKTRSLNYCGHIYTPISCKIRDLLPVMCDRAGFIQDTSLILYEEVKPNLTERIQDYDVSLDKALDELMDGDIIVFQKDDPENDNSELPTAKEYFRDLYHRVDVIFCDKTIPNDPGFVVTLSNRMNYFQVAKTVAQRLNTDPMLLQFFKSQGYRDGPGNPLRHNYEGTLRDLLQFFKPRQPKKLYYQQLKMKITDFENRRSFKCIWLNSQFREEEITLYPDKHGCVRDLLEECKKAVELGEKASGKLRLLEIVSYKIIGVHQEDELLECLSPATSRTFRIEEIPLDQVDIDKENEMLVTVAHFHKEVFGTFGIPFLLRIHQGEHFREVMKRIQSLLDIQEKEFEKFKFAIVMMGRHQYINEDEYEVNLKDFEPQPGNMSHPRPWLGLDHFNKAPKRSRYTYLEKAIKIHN
Kind of test: USP7 Assay A (Ubitquin-Rhodamine 110 Assay). The format is biochemical. The following applies: USP7 activity in USP7 assay A and B (table does not say which assay per compound); read-out: USP7_IC50. An outline of the steps: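 Ub-Rh110 cleavage in 20 mM Tris-HCl pH 8.0 with 1 mM GSH, 0.03% BGG, 0.01% Triton X-100; compound preincubated with enzyme 30 min before substrate.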
Turning to `Cc1ccc(C(=O)N2CCC(O)(Cn3cnc4c(cnn4-c4ccc(-n5cc(OCCO)cn5)cc4)c3=O)CC2)cc1` [Compound I-672], the IC50 fell in the range of 200 to 1000 nM. The same measure, in the same setting: the figure for `Cc1ncn(-c2ccc(-n3ncc4c(=O)n(CC5(O)CCN(C(=O)c6ccc(F)cc6)CC5)cnc43)cc2)n1` [Compound I-673] is 1000 to 10000 nM; for `CN1CC[C@@H](Oc2ccc(-c3ccc(-n4ncc5c(=O)n(CC6(O)CCN(C(=O)C7CC7)CC6)cnc54)cc3)cc2)C1` [Compound I-679] it is less than 200 nM; for `CN1CC[C@H](Oc2ccc(-c3ccc(-n4ncc5c(=O)n(CC6(O)CCN(C(=O)C7CC7)CC6)cnc54)cc3)cc2)C1` [Compound I-680] it is 200 to 1000 nM. Still for that read-out and setting: the result for `CN[C@H]1CCN(c2ccc(-c3ccc(-n4ncc5c(=O)n(CC6(O)CCN(C(=O)C7CC7)CC6)cnc54)cc3)cn2)C1` [Compound I-684] reads less than 200 nM. Still for that read-out and setting: the result for `CNC1CCN(c2ccc(-c3ccc(-n4ncc5c(=O)n(CC6(O)CCN(C(=O)C7CC7)CC6)cnc54)cc3)cn2)C1` (stereo not shown) [Compound I-685] reads less than 200 nM; that for `O=C(C1CC1)N1CCC(O)(Cn2cnc3c(cnn3-c3ccc(-c4ccc(N5CC[C@H](O)C5)nc4)cc3)c2=O)CC1` [Compound I-686], 200 to 1000 nM; that for `O=C(C1CC1)N1CCC(O)(Cn2cnc3c(cnn3-c3ccc(-c4ccc(N5CC[C@@H](O)C5)nc4)cc3)c2=O)CC1` [Compound I-687], 200 to 1000 nM. On to `CN[C@H]1CCN(c2ccc(-c3ccc(-n4ncc5c(=O)n(CC6(O)CCN(C(=O)C7CC7)CC6)cnc54)cc3)cc2)C1` [Compound I-689], for which the IC50 was less than 200 nM. On the same count and under the same terms, the result for `CN[C@@H]1CCN(c2ccc(-c3ccc(-n4ncc5c(=O)n(CC6(O)CCN(C(=O)C7CC7)CC6)cnc54)cc3)cc2)C1` [Compound I-690] reads 200 to 1000 nM; that for `CN1CC(Oc2ccc(-n3ncc4c(=O)n(CC5(O)CCN(C(=O)c6ccc(F)cc6)CC5)cnc43)cc2)C1` [Compound I-692], less than 200 nM. On to `O=C(c1ccc(F)cc1)N1CCC(O)(Cn2cnc3c(cnn3-c3ccc(OCC4(F)CCOCC4)cc3)c2=O)CC1` [Compound I-693], for which the IC50 fell in the range of 200 to 1000 nM. Consider `O=C(c1ccc(F)cc1)N1CCC(O)(Cn2cnc3c(cnn3-c3ccc(OCC4(F)CCC4)cc3)c2=O)CC1` [Compound I-696], for which the IC50 fell in the range of 200 to 1000 nM.

As to `CN1CCN(C(=O)N2CCC(O)(Cn3cnc4c(cnn4-c4ccc(OC5CCC(F)(F)CC5)cc4)c3=O)CC2)CC1` [Compound I-697], the IC50 is more than 10000 nM. On the same count and under the same terms, the figure for `O=C(c1cnc(C2CC2)o1)N1CCC(O)(Cn2cnc3c(cnn3-c3ccc(N4CCC(F)(F)CC4)cc3)c2=O)CC1` [Compound I-699] is 200 to 1000 nM. Take `Cc1nnc(-c2ccc(-n3ncc4c(=O)n(CC5(O)CCN(C(=O)c6ccc(F)cc6)CC5)cnc43)cc2)o1` [Compound I-712]: the IC50 was 1000 to 10000 nM. Turning to `O=C(c1ccc(F)cc1)N1CCC(O)(C(CO)n2cnc3c(cnn3-c3ccc(F)cc3)c2=O)CC1` (stereo not shown) [Compound I-720], the IC50 lay in the range of 1000 to 10000 nM. With `O=C(C1CCc2cn[nH]c2C1)N1CCC(O)(Cn2cnc3c(cnn3-c3ccc(F)cc3)c2=O)CC1` (stereo not shown) [Compound I-724], the IC50 is 200 to 1000 nM. For the compound `Cn1ncc2c1CC(C(=O)N1CCC(O)(Cn3cnc4c(cnn4-c4ccc(F)cc4)c3=O)CC1)CC2` (stereo not shown) [Compound I-725], the IC50 lay in the range of 1000 to 10000 nM. In the case of `O=C(c1cnn(C2CC2)c1)N1CCC(O)(Cn2cnc3c(cnn3-c3ccc(F)cc3)c2=O)CC1` [Compound I-726], the IC50 lay in the range of 200 to 1000 nM. Still for that read-out and setting: the result for `Cn1cc(C2CCC(C(=O)N3CCC(O)(Cn4cnc5c(cnn5-c5ccc(F)cc5)c4=O)CC3)CC2)cn1` (stereo not shown) [Compound I-727] reads 200 to 1000 nM.

Regarding `Cn1cc(C2CCC(C(=O)N3CCC(O)(Cn4cnc5c(cnn5-c5ccc(F)cc5)c4=O)CC3)CC2)cn1` (stereo not shown) [Compound I-728], the IC50 is 200 to 1000 nM. The same measure, in the same setting: the result for `O=C(C[C@H](C(F)F)n1ccc(Cl)n1)N1CCC(O)(Cn2cnc3c(cnn3-c3ccc(F)cc3)c2=O)CC1` [Compound I-731] reads less than 200 nM; that for `O=C(C[C@@H](C(F)F)n1ccc(Cl)n1)N1CCC(O)(Cn2cnc3c(cnn3-c3ccc(F)cc3)c2=O)CC1` [Compound I-732], 1000 to 10000 nM; that for `O=C(C[C@H](C(F)F)n1cc(Cl)cn1)N1CCC(O)(Cn2cnc3c(cnn3-c3ccc(F)cc3)c2=O)CC1` [Compound I-733], 200 to 1000 nM.

In the case of `O=C(C[C@@H](C(F)F)n1cc(Cl)cn1)N1CCC(O)(Cn2cnc3c(cnn3-c3ccc(F)cc3)c2=O)CC1` [Compound I-734], the IC50 was more than 10000 nM.

For `Cc1cnn([C@H](CC(=O)N2CCC(O)(Cn3cnc4c(cnn4-c4ccc(F)cc4)c3=O)CC2)C(F)F)c1` [Compound I-735], the IC50 fell in the range of 1000 to 10000 nM. The same measure, in the same setting: the result for `O=C(C1CCC(Oc2ccc(F)cn2)CC1)N1CCC(O)(Cn2cnc3c(cnn3-c3ccc(F)cc3)c2=O)CC1` (stereo not shown) [Compound I-737] reads less than 200 nM; that for `O=C(C1CCC(Oc2ccc(F)cn2)CC1)N1CCC(O)(Cn2cnc3c(cnn3-c3ccc(F)cc3)c2=O)CC1` (stereo not shown) [Compound I-738], 200 to 1000 nM; that for `O=C(C1CCC(Oc2cccc(F)n2)CC1)N1CCC(O)(Cn2cnc3c(cnn3-c3ccc(F)cc3)c2=O)CC1` (stereo not shown) [Compound I-739], less than 200 nM.

The test is the same for the next values; noted with them: USP7 assay A and B (table does not say which assay per compound); read-out: USP7_IC50.
On to `O=C(C1CC1)N1CCC(O)(Cn2cnc3c(cnn3-c3ccc(-c4ccc(OC5CCNC5)cc4)cc3)c2=O)CC1` (stereo not shown) [Compound I-675], for which the IC50 was in the range of 200 to 1000 nM. On the same count and under the same terms, the result for `CN1CCC(Oc2ccc(-c3ccc(-n4ncc5c(=O)n(CC6(O)CCN(C(=O)C7CC7)CC6)cnc54)cc3)cc2)C1` (stereo not shown) [Compound I-678] reads 200 to 1000 nM; that for `CNC1CCN(c2ccc(-c3ccc(-n4ncc5c(=O)n(CC6(O)CCN(C(=O)C7CC7)CC6)cnc54)cc3)cc2)C1` (stereo not shown) [Compound I-688], 200 to 1000 nM; that for `NC1(c2cccc(-c3ccc(-n4ncc5c(=O)n(CC6(O)CCN(C(=O)C7CC7)CC6)cnc54)cc3)c2)COC1` [Compound I-691], 1000 to 10000 nM. Still for that read-out and setting: the figure for `O=C(C1CC1)N1CCC(O)(Cn2cnc3c(cnn3-c3ccc(-c4ccccc4)c(N4CCNCC4)c3)c2=O)CC1` [Compound I-698] is 200 to 1000 nM; for `CN1CCN(c2ccc(-n3ncc4c(=O)n(CC5(O)CCN(C(=O)C6CC6)CC5)cnc43)cc2Cl)CC1` [Compound I-701] it is 1000 to 10000 nM; for `Cn1cc(-n2ncc3c(=O)n(CC4(O)CCN(C(=O)c5ccc(F)cc5)CC4)cnc32)cn1` [Compound I-703] it is 1000 to 10000 nM. As to `O=C(c1ccc(F)cc1)N1CCC(O)(Cn2cnc3c(cnn3-c3cnn(-c4ccccc4)c3)c2=O)CC1` [Compound I-704], the IC50 lay within 1000 to 10000 nM. Same read-out and setting: the figure for `O=C(c1ccc(OC(F)F)cc1)N1CCC(O)(Cn2cnc3c(cnn3-c3cnn(C4CC4)c3)c2=O)CC1` [Compound I-705] is 1000 to 10000 nM. Take `CN(C)C(=O)N1CCC(O)(Cn2cnc3c(cc(-c4ccccc4)n3-c3ccc(F)cc3)c2=O)CC1` [Compound I-706]: the IC50 is 1000 to 10000 nM. Still for that read-out and setting: the result for `CN(C)c1ccc(-n2ncc3c(=O)n(CC4(O)CCN(C(=O)c5ccc(F)cc5)CC4)cnc32)cc1` [Compound I-707] reads 200 to 1000 nM; that for `O=C(c1ccc(F)cc1)N1CCC(O)(Cn2cnc3c(cnn3-c3ccc(C4(O)CC4)cc3)c2=O)CC1` [Compound I-713], 1000 to 10000 nM; that for `Cn1ccc(Oc2ccc(C(=O)N3CCC(O)(Cn4cnc5c(cnn5-c5ccc(F)cc5)c4=O)CC3)cc2)n1` [Compound I-719], 1000 to 10000 nM.
